Entries after “also recorded” stand apart in the source; their conditions may differ. Marks after values point to notes of the source that are not given here.
Experiments:
mAPP N2a cells [1] = test: Immunoblotting analysis of protein levels in mAPP N2a cells; type: cell-based, mouse; details: immunoblot; for Nrf1 protein level / Nrf2 protein level: P=0.004
mAPP N2a cells [2] = test: qRT-PCR mRNA expression in mAPP N2a cells treated with ligand 1; type: cell-based, mouse
Procedure: The N2a cells grown for 6 days in a serum-free medium (1:1 mixture of DMEM and OptiMEM, plus penicillin and streptomycin (Invitrogen, Carlsbad, CA, USA) until the cells developed neuronal processes. As shown in (FIG. 10), these cells were used for 4 groups—one control group and 3 treatment groups. 1) untreated N2a cells (the control group), 2) N2a cells treated with ligand 1 (N2a+ligand 1), 3) N2a cells transfected mAPP with the (lipofectamine) (20 μM final concentration for 6 hrs (mAPP), 4) N2a cells transfected with mAPP cDNA for 6 hrs, treated with ligand 1 (mAPP+ligand 1 treatment group), N2a cells treated with ligand 1 for 24 hrs and then treated with the mAPP cDNA for 6 hrs (ligand 1+mAPP treatment group). As shown in (FIG. 10), the inventors performed 4 independent cell cultures and treatments for all experiments (n=4).
mRNA levels of mitochondrial dynamics and mitochondrial biogenesis and synaptic genes. Using the reagent TriZol (Invitrogen), the inventors isolated total RNA from 4 independent treatments of N2a cells (n=4) from control (untreated N2a cells) and experimental treatments (N2a cells treated with Ligand 1; N2a cells transfected with mAPP; N2a cells transfected with mAPP and then treated with Ligand 1. Using primer express Software (Applied Biosystems), the inventors designed the oligonucleotide primers for the housekeeping genes β-actin, GDPH; APP-related genes (APP, BACE1 and PSN1); mitochondrial structural genes; fission (Drp1 and Fis1); fusion genes (MFN1, MFN2, Opa1) (54), mitochondrial biogenesis genes (PGC1α, Nrf1, Nrf2, and Tfam) (Manczak et al., 2019), and synaptic proteins (SYN, PSD95 and MAP2). The primer sequences and amplicon sizes are listed in (Table 1). With SYBR-Green chemistry-based quantitative real-time RT-PCR, the inventors measured mRNA expression of the genes mentioned above as described by Manczak et al. 2019(54). Briefly, 2 μg of DNAse-treated total RNA was used as starting material, to which the inventors added 1 μl of oligo (dT), 1 μl of 10 mM dNTPs, 4 μl of 5× first strand buffer, 2 μl of 0.1 M DTT, and 1 μl RNAse outout. The reagents RNA, dT), and dNTPs were mixed first, then heated at 65° C. for 5 min, and finally chilled on ice until the remaining components were added. The samples were incubated at 42° C. for 2 min, and then 1 μl of Superscript II (40 U/μl) was added. The samples were then incubated at 42° C. for 50 min, at which time the reaction was inactivated by heating at 70° C. for 15 min.
Quantitative real-time PCR amplification reactions were performed in N2a cells in an ABI Prism 7900 sequence detection system (Applied Biosystems, Foster City, CA) in a 25-μl volume of total reaction mixture. The reaction mixture consisted of 1×PCR buffer containing SYBR-Green; 3 mM MgCl2; 100 nm of each primer; 200 nm of dATP, dGTP, and dCTP each; 400 nm of dUTP; 0.01 U/μl of AmpErase UNG; and 0.05 U/μl of AmpliTaq Gold. A 20 ng cDNA template was added to each reaction mixture.
The CT-values of β-actin was tested to determine the unregulated endogenous reference gene in N2a cells that were treated with Aβ and protective molecules, and in untreated N2a cells. In the latter case, the CT-value was similar in untreated and N2a cells treated with MTAs and Aβ. The CT-value is an important quantitative parameter in real-time PCR analysis as described in Gutala and Reddy (2004) (55). All RT-PCR reactions were carried out in triplicate, with no template control. The PCR conditions were: 50° C. for 2 min and 95° C. for 10 min, followed by 40 cycles of 95° C. for 15 sec and 60° C. for 1 min. The fluorescent spectra were recorded during the elongation phase of each PCR cycle. To distinguish specific amplicons from non-specific amplifications, a dissociation curve was generated. […]

[3] = mAPP+ligand 1 relative to mAPP cells, P=0.001
[4] = mAPP+ligand 1 relative to mAPP cells, P=0.002, listed as ligand 1
[5] = mAPP+ligand 1 relative to mAPP cells, listed as ligand 1
[6] = mAPP+ligand 1 relative to mAPP cells, listed as ligand1
[7] = mAPP+ligand 1 relative to mAPP cells, P=0.01, listed as ligand 1
[8] = mAPP+ligand 1 relative to mAPP cells, P=0.01, listed as ligand1
[9] = mAPP+ligand 1 relative to mAPP cells, P=0.02
[10] = N2a + mAPP + ligand1 relative to mAPP N2a cells
[11] = N2a + mAPP + ligand1 relative to mAPP N2a cells, listed as ligand 1
[12] = N2a + mAPP + ligand1 relative to mAPP N2a cells, listed as ligand1
[13] = N2a + mAPP + ligand1 relative to mAPP N2a cells, negative = decrease
[14] = N2a + mAPP + ligand1 relative to untreated N2a cells
[15] = ligand 1 treated mAPP cells relative to mAPP cells, size of the decrease, P<0.05

With “[(6As,8S,10aS,12aS)-10a, 12a-dimethyl-2-oxo-3,4,4a,4b,5,6,6a,7,8,9,10,10b,11,12-tetradecahydro-1H-naphtho[2,1-f]quinolin-8-yl] 4-[4-[bis(2-chloroethyl)amino]phenyl]butanoate [Ligand 1]” the BACE1 protein level (mAPP N2a cells [1]; ligand 1 treated cells relative to mAPP cells) was “significantly reduced”, the “C-terminal fragment C99 protein level” value (mAPP N2a cells [1]; [3]) was “significantly decreased; also recorded: significantly reduced” and the Fis1 protein level (mAPP N2a cells [1]; [3]) was “significantly decreased”. The “C-terminal fragment C83 protein level” value (mAPP N2a cells [1]; [4]) was “significantly decreased; also recorded: significantly reduced”, the Mfn1 protein level (mAPP N2a cells [1]; [4]) was “increased” and the Mfn1 protein level (mAPP N2a cells [1]; mAPP+ligand 1 relative to mAPP cells, P=0.002, listed as ligand1) was “significantly increased”. The Nrf1 protein level (mAPP N2a cells [1]; [5]) was “increased”, the Nrf2 protein level (mAPP N2a cells [1]; [5]) was “increased” and the Nrf1 protein level (mAPP N2a cells [1]; [6]) was “significantly increased”. The Nrf2 protein level (mAPP N2a cells [1]; [6]) was “significantly increased”, the Drp1 protein level (mAPP N2a cells [1]; mAPP+ligand 1 relative to mAPP cells, P=0.01) was “significantly decreased” and the Opa1 protein level (mAPP N2a cells [1]; [7]) was “increased”. For the same substance, the PGC1α protein level (mAPP N2a cells [1]; [7]) was “increased”, the Opa1 protein level (mAPP N2a cells [1]; [8]) was “significantly increased” and the PGC1α protein level (mAPP N2a cells [1]; [8]) was “significantly increased”. For the same substance, the PSD95 protein level (mAPP N2a cells [1]; [9]) was “significantly increased”, the Synaptophysin protein level (mAPP N2a cells [1]; [9]) was “significantly increased” and the “Full-length mutant APP protein level” value (mAPP N2a cells [1]; mAPP+ligand 1 relative to mAPP cells, P=0.03) was “significantly decreased; also recorded: significantly reduced”. The MAP2 protein level (mAPP N2a cells [1]; mAPP+ligand 1 relative to mAPP cells, P=0.04) was “significantly increased”, the Mfn2 protein level (mAPP N2a cells [1]; [5]) was “increased” and the TFAM protein level (mAPP N2a cells [1]; [5]) was “increased”. For the same substance, the Mfn2 protein level (mAPP N2a cells [1]; [6]) was “significantly increased”, the TFAM protein level (mAPP N2a cells [1]; [6]) was “significantly increased” and the “mRNA fold change Mfn1” value (mAPP N2a cells [2]; [10]) was 1.3 fold. The “mRNA fold change OPA1” value (mAPP N2a cells [2]; [10]) was 1.2 fold, the “mRNA fold change Mfn2” value (mAPP N2a cells [2]; [11]) was 1.5 fold and the “mRNA fold change Nrf1” value (mAPP N2a cells [2]; [11]) was 2.1 fold. The “mRNA fold change Nrf2” value (mAPP N2a cells [2]; [11]) was 2.1 fold, the “mRNA fold change PGC1a” value (mAPP N2a cells [2]; [11]) was 2.0 fold and the “mRNA fold change PSD95” value (mAPP N2a cells [2]; [11]) was 1.3 fold. For the same substance, the “mRNA fold change Synaptophysin” value (mAPP N2a cells [2]; [11]) was 1.9 fold, the “mRNA fold change TFAM” value (mAPP N2a cells [2]; [11]) was 1.8 fold and the “mRNA fold change Mfn2” value (mAPP N2a cells [2]; [12]) was 1.5* fold. The “mRNA fold change Nrf1” value (mAPP N2a cells [2]; [12]) was 2.1** fold, the “mRNA fold change Nrf2” value (mAPP N2a cells [2]; [12]) was 2.1** fold and the “mRNA fold change PGC1a” value (mAPP N2a cells [2]; [12]) was 2.0** fold. The “mRNA fold change PSD95” value (mAPP N2a cells [2]; [12]) was 1.8* fold, the “mRNA fold change Synaptophysin” value (mAPP N2a cells [2]; [12]) was 1.9* fold and the “mRNA fold change TFAM” value (mAPP N2a cells [2]; [12]) was 1.8* fold. For the same substance, the “mRNA fold change APP” value (mAPP N2a cells [2]; [13]) was −1.5* fold, the “mRNA fold change BACE1” value (mAPP N2a cells [2]; [13]) was −1.4* fold and the “mRNA fold change Drp1” value (mAPP N2a cells [2]; [13]) was −2.3** fold. For the same substance, the “mRNA fold change Fis1” value (mAPP N2a cells [2]; [13]) was −1.5* fold, the “mRNA fold change Presenilin1” value (mAPP N2a cells [2]; [13]) was −1.5* fold and the “mRNA fold change APP” value (mAPP N2a cells [2]; [14]) was 1.3 fold. For the same substance, the “mRNA fold change BACE1” value (mAPP N2a cells [2]; [14]) was 1.1 fold, the “mRNA fold change Drp1” value (mAPP N2a cells [2]; [14]) was 1.1 fold and the “mRNA fold change Fis1” value (mAPP N2a cells [2]; [14]) was 1.0 fold. The “mRNA fold change Mfn1” value (mAPP N2a cells [2]; [14]) was −1.2 fold, the “mRNA fold change Mfn2” value (mAPP N2a cells [2]; [14]) was 1.1 fold and the “mRNA fold change Nrf1” value (mAPP N2a cells [2]; [14]) was 1.2 fold. The “mRNA fold change Nrf2” value (mAPP N2a cells [2]; [14]) was 1.4 fold, the “mRNA fold change OPA1” value (mAPP N2a cells [2]; [14]) was 1.1 fold and the “mRNA fold change PGC1a” value (mAPP N2a cells [2]; [14]) was 1.2 fold. For the same substance, the “mRNA fold change PSD95” value (mAPP N2a cells [2]; [14]) was 1.3 fold, the “mRNA fold change Presenilin1” value (mAPP N2a cells [2]; [14]) was −1.2 fold and the “mRNA fold change Synaptophysin” value (mAPP N2a cells [2]; [14]) was 1.3 fold. For the same substance, the “mRNA fold change TFAM” value (mAPP N2a cells [2]; [14]) was 1.5 fold, the “APP mRNA, fold decreased” value (mAPP N2a cells [2]; [15]) was 1.5 fold and the “BACE1 mRNA, fold decreased” value (mAPP N2a cells [2]; [15]) was 1.4. The “PSN1 mRNA, fold decreased” value (mAPP N2a cells [2]; [15]) was 1.5, the “Drp1 mRNA, fold reduced” value (mAPP N2a cells [2]; mAPP+ligand 1 treated cells relative to mAPP cells, size of the decrease, P<0.005) was 2.3 fold and the “Fis1 mRNA, fold reduced” value (mAPP N2a cells [2]; mAPP+ligand 1 treated cells relative to mAPP cells, size of the decrease, P<0.05) was 1.5 fold.
